{"source": "patent US4952577A", "about": "“Methoxymethyl penem compounds” (Farmitalia Carlo Erba S.r.l., priority 1987, dated 1990)", "key": {"[1]": {"tested_on": "Streptococcus pyogenes ATCC 12384", "assay": "In vitro antibacterial activity (MIC)", "type": "cell-based", "settings": "ATCC12384"}, "S. faecalis ATCC 6057": {"tested_on": "S. faecalis ATCC 6057", "assay": "In vitro antibacterial activity (MIC)", "type": "cell-based", "settings": "Enterococcus faecalis, ATCC6057"}, "[2]": {"tested_on": "Shigella flexneri ATCC 11836", "assay": "In vitro antibacterial activity (MIC)", "type": "cell-based", "settings": "ATCC11836"}, "E. coli B cef. R": {"tested_on": "E. coli B cef. R", "assay": "In vitro antibacterial activity (MIC)", "type": "cell-based", "settings": "Escherichia coli"}, "E. aerogenes 225": {"tested_on": "E. aerogenes 225", "assay": "In vitro antibacterial activity (MIC)", "type": "cell-based", "settings": "Klebsiella aerogenes"}, "[3]": {"tested_on": "Pseudomonas aeruginosa 2598", "assay": "In vitro antibacterial activity (MIC)", "type": "cell-based"}, "E. coli R997 (HSM-1)": {"tested_on": "E. coli R997 (HSM-1)", "assay": "In vitro antibacterial activity (MIC)", "type": "cell-based", "settings": "Escherichia coli"}, "[4]": {"tested_on": "S. epidermidis ATCC 12228", "assay": "In vitro antibacterial activity (MIC)", "type": "cell-based", "settings": "Staphylococcus epidermidis, ATCC12228"}, "P. rettgeri ATCC 925": {"tested_on": "P. rettgeri ATCC 925", "assay": "In vitro antibacterial activity (MIC)", "type": "cell-based", "settings": "Providencia rettgeri, ATCC925"}, "S. aureus 2 MR": {"tested_on": "S. aureus 2 MR", "assay": "In vitro antibacterial activity (MIC)", "type": "cell-based", "settings": "Staphylococcus aureus"}, "Escherichia coli G": {"tested_on": "Escherichia coli G", "assay": "Therapeutic efficacy against experimental infections in the mouse", "type": "in vivo", "settings": "therapy 0.5-1.5-6 hours after infection, read-out: ED50 (cumulative dose)"}, "S. aureus 39/2 Pen^+": {"tested_on": "S. aureus 39/2 Pen^+", "assay": "In vitro antibacterial activity (MIC)", "type": "cell-based", "settings": "Staphylococcus aureus"}, "[5]": {"tested_on": "K. Aerogenes 1082 E cef. R", "assay": "In vitro antibacterial activity (MIC)", "type": "cell-based", "settings": "Klebsiella aerogenes"}, "[6]": {"tested_on": "Salmonella typhi ATCC 14028", "assay": "In vitro antibacterial activity (MIC)", "type": "cell-based", "settings": "Salmonella enterica, read-out: In vitro MIC"}, "[7]": {"tested_on": "gram-positive and gram-negative bacteria", "assay": "Control and treatment of experimental infections in the mouse", "type": "in vivo"}, "[8]": {"tested_on": "Klebsiella aerogenes 1522E", "assay": "In vitro antibacterial activity (MIC)", "type": "cell-based"}, "[9]": {"tested_on": "Providencia stuartii Bs 60", "assay": "In vitro antibacterial activity (MIC)", "type": "cell-based", "settings": "BS60"}, "P. morganii ATCC 25830": {"tested_on": "P. morganii ATCC 25830", "assay": "In vitro antibacterial activity (MIC)", "type": "cell-based", "settings": "Morganella morganii, ATCC25830"}, "[10]": {"tested_on": "Proteus mirabilis FI 7474", "assay": "In vitro antibacterial activity (MIC)", "type": "cell-based", "settings": "FI7474"}, "S. faecium ATCC 8043": {"tested_on": "S. faecium ATCC 8043", "assay": "In vitro antibacterial activity (MIC)", "type": "cell-based", "settings": "Enterococcus faecium, ATCC8043"}, "[11]": {"tested_on": "Acinetobacter calcoaceticus Bg 3", "assay": "In vitro antibacterial activity (MIC)", "type": "cell-based", "settings": "BG3"}, "S. faecalis 55": {"tested_on": "S. faecalis 55", "assay": "In vitro antibacterial activity (MIC)", "type": "cell-based", "settings": "Enterococcus faecalis"}, "[12]": {"tested_on": "Enterobacter cloacae 1321E", "assay": "In vitro antibacterial activity (MIC)", "type": "cell-based"}, "C. freundii 4051 cef. R": {"tested_on": "C. freundii 4051 cef. R", "assay": "In vitro antibacterial activity (MIC)", "type": "cell-based", "settings": "Citrobacter freundii"}, "P. aeruginosa ATCC 19660": {"tested_on": "P. aeruginosa ATCC 19660", "assay": "In vitro antibacterial activity (MIC)", "type": "cell-based", "settings": "Pseudomonas aeruginosa, ATCC19660"}, "[13]": {"tested_on": "Staphylococcus aureus Smith", "assay": "Therapeutic efficacy against experimental infections in the mouse", "type": "in vivo", "settings": "sc, subcutaneous administration, therapy 2 hours after infection, read-out: ED50 (cumulative dose)"}, "[14]": {"tested_on": "Staphylococcus aureus Smith", "assay": "In vitro antibacterial activity (MIC)", "type": "cell-based"}, "S. aureus 2101 MR": {"tested_on": "S. aureus 2101 MR", "assay": "In vitro antibacterial activity (MIC)", "type": "cell-based", "settings": "Staphylococcus aureus"}, "A. calcolaceticus N 409": {"tested_on": "A. calcolaceticus N 409", "assay": "In vitro antibacterial activity (MIC)", "type": "cell-based"}, "[15]": {"tested_on": "Serratia marcescens ATCC 2902", "assay": "In vitro antibacterial activity (MIC)", "type": "cell-based", "settings": "ATCC2902"}, "P. vulgaris 51": {"tested_on": "P. vulgaris 51", "assay": "In vitro antibacterial activity (MIC)", "type": "cell-based", "settings": "Proteus vulgaris"}, "E. cloacae P99 cef. R.": {"tested_on": "E. cloacae P99 cef. R.", "assay": "In vitro antibacterial activity (MIC)", "type": "cell-based", "settings": "Enterobacter cloacae, P99CEF.R."}, "Escherichia coli K 12": {"tested_on": "Escherichia coli K 12", "assay": "In vitro antibacterial activity (MIC)", "type": "cell-based", "settings": "K12"}, "S. salivarius ATCC 9758": {"tested_on": "S. salivarius ATCC 9758", "assay": "In vitro antibacterial activity (MIC)", "type": "cell-based", "settings": "Streptococcus salivarius, ATCC9758"}, "E. aerogenes F46": {"tested_on": "E. aerogenes F46", "assay": "In vitro antibacterial activity (MIC)", "type": "cell-based", "settings": "Klebsiella aerogenes"}, "[16]": {"tested_on": "Cirobacter freundii ATCC 8090", "assay": "In vitro antibacterial activity (MIC)", "type": "cell-based"}, "S. aureus 5635 MR": {"tested_on": "S. aureus 5635 MR", "assay": "In vitro antibacterial activity (MIC)", "type": "cell-based", "settings": "Staphylococcus aureus"}, "[17]": {"assay": "Pharmacokinetic parameters of prodrug esters", "type": "in vivo", "settings": "mouse; last line of Table 4"}, "bacterial β-lactamases": {"tested_on": "bacterial β-lactamases", "assay": "Stability towards bacterial β-lactamases", "type": "in vitro ADME", "settings": "compared with the prior-described mixture"}, "renal dehydropeptidases": {"tested_on": "renal dehydropeptidases", "assay": "Stability towards renal dehydropeptidases", "type": "in vitro ADME", "settings": "compared with the prior-described mixture"}, "[18]": {"assay": "Chemical stability over the whole pH-range", "type": "physicochemical", "settings": "compared with the prior-described mixture"}}, "note": "Read-outs that look alike come from different tables or passages of the source."}
{"smiles": "COCC1=C(C(=O)O)N2C(=O)[C@H]([C@@H](C)O)[C@H]2S1", "note": "[5R,6S,1'R isomer]", "values": [{"measurement": "MIC", "setting": "[1]", "value": 0.022, "unit": "µg/mL"}, {"measurement": "MIC", "setting": "S. faecalis ATCC 6057", "value": 1.56, "unit": "µg/mL"}, {"measurement": "MIC", "setting": "[2]", "value": 0.19, "unit": "µg/mL"}, {"measurement": "MIC", "setting": "E. coli B cef. R", "value": 0.78, "unit": "µg/mL"}, {"measurement": "MIC", "setting": "E. aerogenes 225", "value": 0.78, "unit": "µg/mL"}, {"measurement": "MIC", "setting": "[3]", "value": "> 25", "unit": "µg/mL"}, {"measurement": "MIC", "setting": "E. coli R997 (HSM-1)", "value": 0.39, "unit": "µg/mL"}, {"measurement": "MIC", "setting": "[4]", "value": 0.09, "unit": "µg/mL"}, {"measurement": "MIC", "setting": "P. rettgeri ATCC 925", "value": 1.56, "unit": "µg/mL"}, {"measurement": "MIC", "setting": "S. aureus 2 MR", "value": 3.12, "unit": "µg/mL"}, {"measurement": "ED50", "setting": "Escherichia coli G; sc, subcutaneous administration", "value": 6.7, "unit": "mg/kg"}, {"measurement": "MIC", "setting": "S. aureus 39/2 Pen^+", "value": 0.09, "unit": "µg/mL"}, {"measurement": "MIC", "setting": "[5]", "value": 0.39, "unit": "µg/mL"}, {"measurement": "MIC", "setting": "[6]", "value": 0.39, "unit": "µg/mL"}, {"measurement": "efficacy in the control and treatment of experimental infections", "setting": "[7]", "value": "excellent efficacy"}, {"measurement": "MIC", "setting": "[8]", "value": 0.39, "unit": "µg/mL"}, {"measurement": "MIC", "setting": "[9]", "value": 3.12, "unit": "µg/mL"}, {"measurement": "MIC", "setting": "P. morganii ATCC 25830", "value": 1.56, "unit": "µg/mL"}, {"measurement": "MIC", "setting": "[10]", "value": 0.78, "unit": "µg/mL"}, {"measurement": "MIC", "setting": "S. faecium ATCC 8043", "value": 3.12, "unit": "µg/mL"}, {"measurement": "MIC", "setting": "[11]", "value": 1.56, "unit": "µg/mL"}, {"measurement": "MIC", "setting": "S. faecalis 55", "value": 3.12, "unit": "µg/mL"}, {"measurement": "MIC", "setting": "[12]", "value": 0.39, "unit": "µg/mL"}, {"measurement": "MIC", "setting": "C. freundii 4051 cef. R", "value": 6.25, "unit": "µg/mL"}, {"measurement": "MIC", "setting": "P. aeruginosa ATCC 19660", "value": "> 25", "unit": "µg/mL"}, {"measurement": "ED50", "setting": "[13]", "value": 0.21, "unit": "mg/kg"}, {"measurement": "MIC", "setting": "[14]", "value": 0.09, "unit": "µg/mL"}, {"measurement": "MIC", "setting": "S. aureus 2101 MR", "value": 3.12, "unit": "µg/mL"}, {"measurement": "MIC", "setting": "A. calcolaceticus N 409", "value": 6.25, "unit": "µg/mL"}, {"measurement": "MIC", "setting": "[15]", "value": 6.25, "unit": "µg/mL"}, {"measurement": "MIC", "setting": "P. vulgaris 51", "value": 0.39, "unit": "µg/mL"}, {"measurement": "MIC", "setting": "E. cloacae P99 cef. R.", "value": 0.39, "unit": "µg/mL"}, {"measurement": "MIC", "setting": "Escherichia coli K 12", "value": 0.39, "unit": "µg/mL"}, {"measurement": "MIC", "setting": "S. salivarius ATCC 9758", "value": 0.022, "unit": "µg/mL"}, {"measurement": "MIC", "setting": "E. aerogenes F46", "value": 0.78, "unit": "µg/mL"}, {"measurement": "MIC", "setting": "[16]", "value": 0.39, "unit": "µg/mL"}, {"measurement": "MIC", "setting": "S. aureus 5635 MR", "value": 0.19, "unit": "µg/mL"}]}
{"smiles": "COCC1=C(C(=O)OCOC(C)=O)N2C(=O)[C@H]([C@@H](C)O)[C@H]2S1", "note": "[Compound 1, Acetoxymethyl (5R,6S)-6-[l(R)-Hydroxyethyl]-2-Methoxymethyl-Penem-3-Carboxylate]", "values": [{"measurement": "[drawing 32] (parameter name shown only as drawing)", "setting": "[17]", "value": 7}]}
{"smiles": "COCC1=C(C(=O)OCc2oc(=O)oc2C)N2C(=O)[C@H]([C@@H](C)O)[C@H]2S1", "note": "[Compound 20, (5-Methyl-2-Oxo-1,3-Dioxolen-4-yl)Methyl (5R,6S)-6-[1(R)-Hydroxyethyl]-2-Methoxymethyl-Penem-3-Carboxylate]", "values": [{"measurement": "ED50", "setting": "Escherichia coli G; oral administration", "value": 13.1, "unit": "mg/kg"}, {"measurement": "[drawing 32] (parameter name shown only as drawing)", "setting": "[17]", "value": 7}]}
{"smiles": "CC(=O)OCOC(=O)C1=C(COC(N)=O)S[C@@H]2[C@@H]([C@@H](C)O)C(=O)N12", "note": "[FCE 22891, reference compound]", "values": [{"measurement": "[drawing 32] (parameter name shown only as drawing)", "setting": "[17]", "value": 6}]}
{"smiles": "COCC1=C(C(=O)O)N2C(=O)[C@H]([C@@H](C)O)[C@H]2S1", "note": "[compound of formula (I), (5R,6S, 1'R)-configured 6-(1-hydroxyethyl)-2-methoxymethyl-penem-3-carboxylic acid]", "values": [{"measurement": "stability towards bacterial β-lactamases", "setting": "bacterial β-lactamases", "value": "superior stability"}, {"measurement": "stability towards renal dehydropeptidases", "setting": "renal dehydropeptidases", "value": "superior stability"}, {"measurement": "chemical stability", "setting": "[18]", "value": "considerably improved chemical stability"}]}
